ChEMBL document CHEMBL1135497, “Identification of potent and novel alpha4beta1 antagonists using in silico screening” (J Med Chem, 2002)

target: Integrin alpha-4/beta-1 (Homo sapiens, UniProt P05556+P13612); test: Inhibition of Very late antigen 4 (VLA-4) and VCAM-Ig fusion protein interaction; assay type: protein-complex assay
Sequence (P05556 whole entry, the tested form may be a part): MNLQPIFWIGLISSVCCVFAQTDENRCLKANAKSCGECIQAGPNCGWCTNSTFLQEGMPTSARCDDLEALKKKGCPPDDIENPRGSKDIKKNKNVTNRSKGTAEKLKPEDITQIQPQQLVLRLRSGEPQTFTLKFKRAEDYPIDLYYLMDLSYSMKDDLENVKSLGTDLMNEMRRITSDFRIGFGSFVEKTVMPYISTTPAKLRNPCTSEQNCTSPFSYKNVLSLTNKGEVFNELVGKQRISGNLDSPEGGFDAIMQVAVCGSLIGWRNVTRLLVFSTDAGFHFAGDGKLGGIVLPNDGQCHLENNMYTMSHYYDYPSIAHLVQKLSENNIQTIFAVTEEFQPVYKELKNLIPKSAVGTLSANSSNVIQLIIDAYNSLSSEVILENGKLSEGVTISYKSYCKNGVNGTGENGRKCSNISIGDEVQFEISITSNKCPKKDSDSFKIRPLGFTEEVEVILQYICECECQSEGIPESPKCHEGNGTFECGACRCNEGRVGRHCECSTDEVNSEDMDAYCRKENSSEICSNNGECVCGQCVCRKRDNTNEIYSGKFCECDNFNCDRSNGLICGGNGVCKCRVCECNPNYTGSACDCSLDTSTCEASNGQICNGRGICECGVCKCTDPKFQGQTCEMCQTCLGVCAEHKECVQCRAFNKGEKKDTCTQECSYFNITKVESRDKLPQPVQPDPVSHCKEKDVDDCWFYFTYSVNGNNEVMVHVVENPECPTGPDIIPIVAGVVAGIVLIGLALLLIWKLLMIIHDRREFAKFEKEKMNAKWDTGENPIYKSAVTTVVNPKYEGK
Sequence (P13612 whole entry, the tested form may be a part): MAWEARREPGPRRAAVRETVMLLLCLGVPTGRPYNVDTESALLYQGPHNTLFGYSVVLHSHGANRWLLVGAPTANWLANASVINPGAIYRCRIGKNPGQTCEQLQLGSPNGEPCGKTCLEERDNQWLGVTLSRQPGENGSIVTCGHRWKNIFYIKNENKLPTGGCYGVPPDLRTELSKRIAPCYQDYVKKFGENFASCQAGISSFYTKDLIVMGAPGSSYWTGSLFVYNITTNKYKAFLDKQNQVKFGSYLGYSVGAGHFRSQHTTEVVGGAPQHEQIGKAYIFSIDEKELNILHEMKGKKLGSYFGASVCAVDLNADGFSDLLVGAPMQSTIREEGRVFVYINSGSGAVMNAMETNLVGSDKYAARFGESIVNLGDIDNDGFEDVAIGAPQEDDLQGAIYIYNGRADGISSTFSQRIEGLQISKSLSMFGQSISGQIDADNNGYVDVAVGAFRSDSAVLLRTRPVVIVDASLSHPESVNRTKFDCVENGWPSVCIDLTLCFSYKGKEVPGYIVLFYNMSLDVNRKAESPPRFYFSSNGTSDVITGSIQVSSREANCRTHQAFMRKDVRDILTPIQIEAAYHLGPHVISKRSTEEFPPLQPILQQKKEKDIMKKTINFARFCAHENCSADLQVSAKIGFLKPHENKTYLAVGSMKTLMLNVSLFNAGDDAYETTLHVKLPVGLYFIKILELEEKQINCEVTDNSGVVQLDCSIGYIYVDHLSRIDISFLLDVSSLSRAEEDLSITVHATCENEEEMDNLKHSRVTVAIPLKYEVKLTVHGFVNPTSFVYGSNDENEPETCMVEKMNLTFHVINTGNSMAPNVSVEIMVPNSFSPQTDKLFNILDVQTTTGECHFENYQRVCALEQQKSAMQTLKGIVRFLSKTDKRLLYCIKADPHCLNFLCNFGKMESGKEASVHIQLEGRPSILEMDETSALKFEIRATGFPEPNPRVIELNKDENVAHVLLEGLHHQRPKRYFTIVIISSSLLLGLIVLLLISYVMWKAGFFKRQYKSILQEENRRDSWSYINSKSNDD

Point of comparison: `Cc1ccccc1NC(=O)Nc1ccc(CC(=O)Nc2cccc(C(C)CC(=O)O)c2)cc1` (configuration not stated), IC50 2.5 µM. Against it:
- Cc1ccccc1NC(=O)Nc1ccc(CC(=O)Nc2cccc(C(=O)NCC(=O)O)c2)cc1 — 2.1-fold lower, 1.2 µM
- Cc1ccccc1NC(=O)Nc1ccc(CC(=O)Nc2nc(CC(=O)O)cs2)cc1 — 6-fold higher, 15 µM
- C=C(S/C(=N\C(=O)Cc1ccc(NC(=O)Nc2ccccc2C)cc1)NCCC(=O)O)c1ccccc1 — 8-fold higher, 20 µM
- Cc1ccccc1NC(=O)Nc1ccc(CC(=O)Nc2nnc(SCC(=O)O)s2)cc1 — within 1.5-fold, 2.3 µM
- Cc1ccccc1NC(=O)Nc1ccc(CC(=O)Nc2ccc(C(C)CC(=O)O)cc2)cc1 (configuration not stated) — 1900-fold lower, 0.0013 µM
- Cc1ccccc1NC(=O)Nc1ccc(CC(=O)Nc2cccc(CCC(=O)O)c2)cc1 — 4.6-fold higher, 11.4 µM
- Cc1ccccc1NC(=O)Nc1ccc(CC(=O)Nc2cn(CCC(=O)O)c(C)n2)cc1 — within 1.5-fold, 3 µM
- CC(=O)NC(Cc1ccc(NC(=O)Cc2ccc(NC(=O)Nc3ccccc3C)cc2)cc1)C(=O)O (configuration not stated) — 43-fold lower, 0.058 µM
- Cc1ccccc1NC(=O)Nc1ccc(CC(=O)Nc2cccc(NC(=O)NCC(=O)O)c2)cc1 — 37-fold lower, 0.067 µM
- Cc1ccccc1NC(=O)Nc1ccc(CC(=O)Nc2ccc3cnn(C(=O)NCC(=O)O)c3c2)cc1 — 3.1-fold lower, 0.8 µM
- Cc1ccccc1NC(=O)Nc1ccc(CC(=O)Nc2cccc(C(O)CC(=O)O)c2)cc1 (configuration not stated) — within 1.5-fold, 2 µM
